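Compound exposure: 48 hours, 5 concentrations, 96-well plates. Here, GI50 denotes the concentration required for 50% inhibition of growth. TGI is the concentration that stops growth completely.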
Columns and labels:
Experiment in all cases: NCI anticancer screen, dose series, 48 h
SF-295 CNS = system: SF-295 CNS
CAKI-1 renal = system: CAKI-1 renal
RPMI-8226 leukemia = system: RPMI-8226 leukemia
ACHN renal = system: ACHN renal
OVCAR-5 ovarian = system: OVCAR-5 ovarian
SNB-75 CNS = system: SNB-75 CNS
HCC-2998 colon = system: HCC-2998 colon
SN12C renal = system: SN12C renal
MALME-3M melanoma = system: MALME-3M melanoma
KM12 colon = system: KM12 colon
XF 498 CNS = system: XF 498 CNS
EKVX NSCLC = system: EKVX NSCLC
UACC-62 melanoma = system: UACC-62 melanoma
DMS 114 small cell lung = system: DMS 114 small cell lung
RXF 393 renal = system: RXF 393 renal
NCI-H23 lung = system: NCI-H23 lung
A498 renal = system: A498 renal
M14 melanoma = system: M14 melanoma
RXF-631 renal = system: RXF-631 renal
SK-MEL-28 melanoma = system: SK-MEL-28 melanoma
LXFL 529 NSCLC = system: LXFL 529 NSCLC
HT29 colon = system: HT29 colon
CCRF-CEM leukemia = system: CCRF-CEM leukemia
SW-620 colon = system: SW-620 colon
SNB-19 CNS = system: SNB-19 CNS
NCI-H226 lung = system: NCI-H226 lung
SNB-78 CNS = system: SNB-78 CNS
K-562 leukemia = system: K-562 leukemia
HOP-62 NSCLC = system: HOP-62 NSCLC
HL-60(TB) leukemia = system: HL-60(TB) leukemia
DLD-1 colon = system: DLD-1 colon
A549 NSCLC = system: A549 NSCLC
OVCAR-3 ovarian = system: OVCAR-3 ovarian
MOLT-4 leukemia = system: MOLT-4 leukemia
786-0 renal = system: 786-0 renal
KM20L2 colon = system: KM20L2 colon
HOP-92 NSCLC = system: HOP-92 NSCLC
NCI-H460 lung = system: NCI-H460 lung
SR leukemia = system: SR leukemia
COLO 205 colon = system: COLO 205 colon
SF-539 CNS = system: SF-539 CNS
TK-10 renal = system: TK-10 renal
OVCAR-4 ovarian = system: OVCAR-4 ovarian
LOX IMVI melanoma = system: LOX IMVI melanoma
HCT-116 colon = system: HCT-116 colon
SK-MEL-5 melanoma = system: SK-MEL-5 melanoma
HOP-18 NSCLC = system: HOP-18 NSCLC
NCI-H522 lung = system: NCI-H522 lung
HCT-15 colon = system: HCT-15 colon
IGROV1 ovarian = system: IGROV1 ovarian
DMS 273 small cell lung = system: DMS 273 small cell lung
UACC-257 melanoma = system: UACC-257 melanoma
OVCAR-8 ovarian = system: OVCAR-8 ovarian
SK-OV-3 ovarian = system: SK-OV-3 ovarian
SF-268 CNS = system: SF-268 CNS
UO-31 renal = system: UO-31 renal
U251 CNS = system: U251 CNS
NCI/ADR-RES ovarian = system: NCI/ADR-RES ovarian
HS 578T breast = system: HS 578T breast
M19-MEL melanoma = system: M19-MEL melanoma
DU-145 prostate = system: DU-145 prostate
MDA-MB-435 = system: MDA-MB-435
MCF7 breast = system: MCF7 breast
SK-MEL-2 melanoma = system: SK-MEL-2 melanoma
BT-549 breast = system: BT-549 breast
PC-3 prostate = system: PC-3 prostate
MDA-N = system: MDA-N
T-47D breast = system: T-47D breast

Cc1ccc(C(=O)O)cc1NC(=O)c1cc(/C=C/c2ccccc2)[nH]c(=S)n1
TGI (SF-295 CNS): > 100 µM | TGI (CAKI-1 renal): > 100 µM | TGI (RPMI-8226 leukemia): > 69.7 µM | TGI (ACHN renal): > 100 µM | TGI (OVCAR-5 ovarian): > 100 µM | TGI (SNB-75 CNS): > 100 µM | TGI (HCC-2998 colon): > 100 µM | TGI (SN12C renal): > 100 µM | TGI (MALME-3M melanoma): > 100 µM | TGI (KM12 colon): > 100 µM | TGI (XF 498 CNS): > 100 µM | TGI (EKVX NSCLC): > 100 µM | TGI (UACC-62 melanoma): > 100 µM | TGI (DMS 114 small cell lung): > 100 µM | TGI (RXF 393 renal): > 100 µM | TGI (NCI-H23 lung): > 100 µM | TGI (A498 renal): > 100 µM | TGI (M14 melanoma): > 100 µM | TGI (RXF-631 renal): > 100 µM | TGI (SK-MEL-28 melanoma): > 100 µM | TGI (LXFL 529 NSCLC): > 100 µM | TGI (HT29 colon): > 100 µM | TGI (CCRF-CEM leukemia): > 100 µM | TGI (SW-620 colon): > 48.8 µM | TGI (SNB-19 CNS): > 100 µM | TGI (NCI-H226 lung): > 100 µM | TGI (SNB-78 CNS): > 100 µM | TGI (K-562 leukemia): > 100 µM | TGI (HOP-62 NSCLC): > 100 µM | TGI (HL-60(TB) leukemia): > 100 µM | TGI (DLD-1 colon): > 77.1 µM | TGI (A549 NSCLC): > 100 µM | TGI (OVCAR-3 ovarian): > 100 µM | TGI (MOLT-4 leukemia): > 100 µM | TGI (786-0 renal): > 100 µM | TGI (KM20L2 colon): > 100 µM | TGI (HOP-92 NSCLC): > 100 µM | TGI (NCI-H460 lung): > 100 µM | TGI (SR leukemia): > 100 µM | TGI (COLO 205 colon): > 100 µM | TGI (SF-539 CNS): > 100 µM | TGI (TK-10 renal): > 100 µM | TGI (OVCAR-4 ovarian): > 100 µM | TGI (LOX IMVI melanoma): > 100 µM | TGI (HCT-116 colon): > 53 µM | TGI (SK-MEL-5 melanoma): > 100 µM | TGI (HOP-18 NSCLC): > 100 µM | TGI (NCI-H522 lung): > 100 µM | TGI (HCT-15 colon): > 60.7 µM | TGI (IGROV1 ovarian): > 100 µM | TGI (DMS 273 small cell lung): > 100 µM | TGI (UACC-257 melanoma): > 100 µM | TGI (OVCAR-8 ovarian): > 100 µM | TGI (SK-OV-3 ovarian): > 100 µM | TGI (SF-268 CNS): > 100 µM | TGI (UO-31 renal): > 100 µM | TGI (U251 CNS): > 100 µM

COC1/C=C\C=C(/C)C(=O)NC2=CC(=O)C(N)=C(CC(C)CC(OC)C(O)C(C)C=C(C)C1OC(N)=O)C2=O (centres undefined)
TGI (NCI/ADR-RES ovarian): > 100 µM | TGI (SF-295 CNS): > 62.2 µM | TGI (CAKI-1 renal): > 89.8 µM | TGI (RPMI-8226 leukemia): 65.4 µM | TGI (ACHN renal): 83.5 µM | TGI (OVCAR-5 ovarian): 39.7 µM | TGI (SNB-75 CNS): 11.3 µM | TGI (HCC-2998 colon): 1.74 µM | TGI (SN12C renal): 29 µM | TGI (MALME-3M melanoma): 15.4 µM | TGI (XF 498 CNS): 24.8 µM | TGI (HS 578T breast): 59.4 µM | TGI (EKVX NSCLC): 63 µM | GI50 (UACC-62 melanoma): 0.0322 µM | TGI (UACC-62 melanoma): 18.4 µM | TGI (RXF 393 renal): > 94.7 µM | GI50 (NCI-H23 lung): 0.0375 µM | TGI (NCI-H23 lung): 21.5 µM | TGI (A498 renal): > 96.4 µM | GI50 (M14 melanoma): 0.0379 µM | TGI (M14 melanoma): 33.4 µM | TGI (RXF-631 renal): > 100 µM | GI50 (SK-MEL-28 melanoma): 0.0513 µM | TGI (SK-MEL-28 melanoma): > 73.8 µM | TGI (M19-MEL melanoma): 12.5 µM | GI50 (DU-145 prostate): 0.067 µM | TGI (DU-145 prostate): 31.7 µM | TGI (LXFL 529 NSCLC): > 100 µM | GI50 (HT29 colon): 0.0337 µM | TGI (HT29 colon): > 63.7 µM | TGI (CCRF-CEM leukemia): 35.8 µM | GI50 (SW-620 colon): 0.0468 µM | TGI (SW-620 colon): 17.4 µM | TGI (SNB-19 CNS): 93.7 µM | TGI (NCI-H226 lung): > 100 µM | TGI (SNB-78 CNS): 91.1 µM | GI50 (K-562 leukemia): 0.0982 µM | TGI (K-562 leukemia): > 69.6 µM | TGI (HOP-62 NSCLC): > 78 µM | TGI (HL-60(TB) leukemia): 19.3 µM | TGI (DLD-1 colon): 17.7 µM | GI50 (MDA-MB-435): 0.051 µM | TGI (MDA-MB-435): 14.9 µM | TGI (A549 NSCLC): 40.9 µM | TGI (OVCAR-3 ovarian): 20.2 µM | TGI (MOLT-4 leukemia): 48.7 µM | TGI (786-0 renal): > 100 µM | TGI (KM20L2 colon): 0.0192 µM | GI50 (NCI-H460 lung): 0.0459 µM | TGI (NCI-H460 lung): > 54.7 µM | TGI (MCF7 breast): 37.6 µM | GI50 (SR leukemia): < 0.01 µM | TGI (SR leukemia): 1.64 µM | GI50 (COLO 205 colon): 0.0614 µM | TGI (COLO 205 colon): 0.0507 µM | TGI (SK-MEL-2 melanoma): 14.9 µM | GI50 (SF-539 CNS): 0.0397 µM | TGI (SF-539 CNS): > 44.4 µM | TGI (TK-10 renal): > 77.2 µM | TGI (OVCAR-4 ovarian): 36.9 µM | GI50 (LOX IMVI melanoma): 0.0761 µM | TGI (LOX IMVI melanoma): 1.55 µM | TGI (HCT-116 colon): 25.3 µM | TGI (SK-MEL-5 melanoma): 15.8 µM | TGI (HOP-18 NSCLC): 32.4 µM | GI50 (BT-549 breast): 0.0806 µM | TGI (BT-549 breast): > 45.2 µM | TGI (NCI-H522 lung): 0.392 µM | TGI (HCT-15 colon): 31.5 µM | TGI (PC-3 prostate): > 75.7 µM | GI50 (MDA-N): 0.0829 µM | TGI (MDA-N): 12.6 µM | TGI (IGROV1 ovarian): 25.9 µM | TGI (UACC-257 melanoma): 14.5 µM | TGI (OVCAR-8 ovarian): 33.9 µM | GI50 (SK-OV-3 ovarian): 0.0822 µM | TGI (SK-OV-3 ovarian): > 100 µM | TGI (SF-268 CNS): 68.6 µM | TGI (T-47D breast): 33.7 µM | TGI (UO-31 renal): 40.4 µM | GI50 (U251 CNS): 0.0822 µM | TGI (U251 CNS): > 48.9 µM
